ChEMBL document CHEMBL3739282, “An efficient green synthesis of 2-arylbenzothiazole analogues as potent antibacterial and anticancer agents” (Bioorg Med Chem Lett, 2016)
Values after ≈ are worked out from the molar mass of the structure shown.

Key:
MCF7 = experiment: Cytotoxicity against human MCF7 cells assessed as cell death after 24 hrs by MTT assay; type: functional, cell-based; details: MCF7, 24 h
HeLa = experiment: Cytotoxicity against human HeLa cells assessed as cell death after 24 hrs by MTT assay; type: functional, cell-based
Staphylococcus aureus = experiment: Antibacterial activity against Staphylococcus aureus assessed as growth inhibition incubated for 24 hrs at 37 degC by agar well diffusion method; type: functional
Escherichia coli = experiment: Antibacterial activity against Escherichia coli assessed as growth inhibition incubated for 24 hrs at 37 degC by agar well diffusion method; type: functional
Bacillus subtilis = experiment: Antibacterial activity against Bacillus subtilis assessed as growth inhibition incubated for 24 hrs at 37 degC by agar well diffusion method; type: functional
Salmonella = experiment: Antibacterial activity against Salmonella assessed as growth inhibition incubated for 24 hrs at 37 degC by agar well diffusion method; type: functional
[1] = Stability of the compound in GSH at 10^-5 M after 48 hrs by UV-vis spectroscopic analysis; type: physicochemical; details: 10 µM

c1ccc2[nH]c(-c3nc4ccccc4s3)cc2c1
IC50 (MCF7): 9.26 µM
IC50 (HeLa): 15.2 µM
MIC (Staphylococcus aureus): 3.12 µg/mL (≈ 12.5 µM)
MIC (Escherichia coli): 3.12 µg/mL (≈ 12.5 µM)
MIC (Bacillus subtilis): 3.12 µg/mL (≈ 12.5 µM)
MIC (Salmonella): 3.12 µg/mL (≈ 12.5 µM)

Cc1ccccc1-c1nc2ccccc2s1
IC50 (MCF7): 20.4 µM
IC50 (HeLa): 28.2 µM
MIC (Staphylococcus aureus): 100 µg/mL (≈ 444 µM)
MIC (Escherichia coli): 100 µg/mL (≈ 444 µM)
MIC (Bacillus subtilis): 100 µg/mL (≈ 444 µM)
MIC (Salmonella): 100 µg/mL (≈ 444 µM)

O=C(O)c1cn(C2CC2)c2cc(N3CCNCC3)c(F)cc2c1=O [CIPROFLOXACIN]
MIC (Bacillus subtilis): 25 µg/mL (≈ 75.4 µM)
MIC (Salmonella): 10 µg/mL (≈ 30.2 µM)

Oc1ccccc1-c1nc2ccccc2s1
IC50 (MCF7): 26.8 µM
IC50 (HeLa): 30.6 µM
MIC (Staphylococcus aureus): 100 µg/mL (≈ 440 µM)
MIC (Escherichia coli): 100 µg/mL (≈ 440 µM)
MIC (Bacillus subtilis): 100 µg/mL (≈ 440 µM)
MIC (Salmonella): 100 µg/mL (≈ 440 µM)

Brc1cccc(-c2nc3ccccc3s2)c1
IC50 (MCF7): 10.5 µM
IC50 (HeLa): 17.4 µM
MIC (Staphylococcus aureus): 12.5 µg/mL (≈ 43.1 µM)
MIC (Escherichia coli): 12.5 µg/mL (≈ 43.1 µM)
MIC (Bacillus subtilis): 12.5 µg/mL (≈ 43.1 µM)
MIC (Salmonella): 12.5 µg/mL (≈ 43.1 µM)

Fc1ccc(-c2nc3ccccc3s2)cc1
IC50 (MCF7): 9.85 µM
IC50 (HeLa): 16.6 µM
MIC (Staphylococcus aureus): 6.25 µg/mL (≈ 27.3 µM)
MIC (Escherichia coli): 6.25 µg/mL (≈ 27.3 µM)
MIC (Bacillus subtilis): 12.5 µg/mL (≈ 54.5 µM)
MIC (Salmonella): 12.5 µg/mL (≈ 54.5 µM)

c1ccc(-c2nc3ccccc3s2)cc1 [2-PHENYLBENZO[D]THIAZOLE]
IC50 (MCF7): 18.5 µM
IC50 (HeLa): 22.1 µM
MIC (Staphylococcus aureus): 50 µg/mL (≈ 237 µM)
MIC (Escherichia coli): 50 µg/mL (≈ 237 µM)
MIC (Bacillus subtilis): 25 µg/mL (≈ 118 µM)
MIC (Salmonella): 25 µg/mL (≈ 118 µM)
Stability [1]: Stable

Clc1ccccc1-c1nc2ccccc2s1
IC50 (MCF7): 10.7 µM
IC50 (HeLa): 18.2 µM
MIC (Staphylococcus aureus): 12.5 µg/mL (≈ 50.9 µM)
MIC (Escherichia coli): 12.5 µg/mL (≈ 50.9 µM)
MIC (Bacillus subtilis): 12.5 µg/mL (≈ 50.9 µM)
MIC (Salmonella): 12.5 µg/mL (≈ 50.9 µM)

c1coc(-c2nc3ccccc3s2)c1
IC50 (MCF7): 17.6 µM
IC50 (HeLa): 22.6 µM
MIC (Staphylococcus aureus): 50 µg/mL (≈ 248 µM)
MIC (Escherichia coli): 50 µg/mL (≈ 248 µM)
MIC (Bacillus subtilis): 50 µg/mL (≈ 248 µM)
MIC (Salmonella): 50 µg/mL (≈ 248 µM)

c1ccc(-c2nc3ccccc3s2)nc1
IC50 (MCF7): 20.4 µM
IC50 (HeLa): 27.5 µM
MIC (Staphylococcus aureus): 6.25 µg/mL (≈ 29.4 µM)
MIC (Escherichia coli): 12.5 µg/mL (≈ 58.9 µM)
MIC (Bacillus subtilis): 12.5 µg/mL (≈ 58.9 µM)
MIC (Salmonella): 12.5 µg/mL (≈ 58.9 µM)
Stability [1]: Stable

NC[C@H]1O[C@H](O[C@H]2[C@H](O)[C@@H](O[C@H]3O[C@H](CO)[C@@H](O)[C@H](N)[C@H]3O)[C@H](N)C[C@@H]2N)[C@H](N)C[C@@H]1O [TOBRAMYCIN]
MIC (Staphylococcus aureus): 1.5 µg/mL (≈ 3.21 µM)
MIC (Escherichia coli): 3 µg/mL (≈ 6.42 µM)
MIC (Bacillus subtilis): 3 µg/mL (≈ 6.42 µM)
MIC (Salmonella): 3 µg/mL (≈ 6.42 µM)

c1csc(-c2nc3ccccc3s2)c1
IC50 (MCF7): 22.6 µM
IC50 (HeLa): 28.5 µM
MIC (Staphylococcus aureus): 12.5 µg/mL (≈ 57.5 µM)
MIC (Escherichia coli): 12.5 µg/mL (≈ 57.5 µM)
MIC (Bacillus subtilis): 25 µg/mL (≈ 115 µM)
MIC (Salmonella): 25 µg/mL (≈ 115 µM)

c1ccc2cc(-c3nc4ccccc4s3)ccc2c1
IC50 (MCF7): 42.3 µM
IC50 (HeLa): 48.2 µM
MIC (Staphylococcus aureus): > 200 µg/mL
MIC (Escherichia coli): > 200 µg/mL
MIC (Bacillus subtilis): > 200 µg/mL
MIC (Salmonella): > 200 µg/mL

GENTAMICIN
MIC (Staphylococcus aureus): 1 µg/mL
MIC (Escherichia coli): 2 µg/mL
MIC (Bacillus subtilis): 2 µg/mL
MIC (Salmonella): 2 µg/mL

COc1cccc(-c2nc3ccccc3s2)c1O
IC50 (MCF7): 28.6 µM
IC50 (HeLa): 32.6 µM
MIC (Staphylococcus aureus): > 200 µg/mL
MIC (Escherichia coli): > 200 µg/mL
MIC (Bacillus subtilis): > 200 µg/mL
MIC (Salmonella): > 200 µg/mL
